The text below walks through data of patent publication EP0326418A1, “GRF analogs” (THE UPJOHN COMPANY, priority 1988, dated 1989).

Read-outs that look alike come from different tables or passages of the source. Where a SMILES comes first, the peptide text is derived from it. Where no end group is shown, it is not given here. [ ]: non-standard residue; d: D form. The star is where a group is joined. Desaminotyrosyl = O=C(CCc1ccc(O)cc1)*; Cya = N[C@@H](CS(=O)(=O)O)C(=O)O

As usually defined, the fraction remaining is what is left of the initial amount, in per cent. Low values mean more turnover, high ones less turnover.

The test system of data set [1] is bovine anterior pituitary cell culture. In kind it is cell-based. The following applies: for potency (in words): summary of the bovine pituitary cell culture assays.
For a further data set, the system named is meal-fed Holstein steers. Description: serum growth hormone (GH) response after intravenous injection in steers (Procedure B). It counts as in vivo. The following applies: for serum growth hormone (GH) response, difference from Leu²⁷ bGRF(1-32)NH₂: compared with Leu²⁷ bGRF(1-32)NH₂; for area under the GH response curve: in comparison to bGRF(1-44)NH₂ (100%), first study; for relative growth hormone areas: in comparison to the standard bGRF(1-44)NH₂ (Area 100%), procedure B, second study. The text has this: The synthetic peptides prepared in Examples 1, 2 and 3 (Compounds 1, 2 and 3 respectively), bGRF(1-44)NH2 and […] bGRF(1-32)NH2 were also given to meal-fed Holstein steers by intravenous injection (Procedure B) and the serum growth hormone (GH) response evaluated. […] In comparison to bGRF(1-44)NH2 (100%), the area under the GH response curve was 122% for […] bGRF(1-32)NH2, 100% for Compound #1, 106% for Compound #2, and 111% for Compound #3. Holstein steers (265 +/- 5kg) were housed in individual stalls 18-20°C) and exposed to 16h light:8h darkness (lights on at 0400h). Steers are meal-fed once daily at 1000h and trained to consume their total daily feed intake in 2 h. The diet consisted of rolled corn plus a mineral/vitamin premix and alfalfa hay cubes fed at 160% maintenance energy requirements on a bodyweight basis. Steers gained approximately 0.75 kg/h/d. In a 5 x […] Latin Square design 10 steers were assigned randomly to receive the following treatments. (a) bGRF(1-44)NH2, (b) […] bGRF(1-32)NH2, (c) Compound #3, (d) Compound #1, and (e) Compound #2. The GRFs were dissolves in saline (10μg/ml) and administered at 3nM/100 kg bodyweight as single iv injection at 0800 h, 2 h between feeding. A cannula was inserted into a jugular vein at least one day before treatment. Blood (6 ml) was collected at 20-min interval from 40 min before until 120 min after injection with additional samples collected at 5, 10 and 15 min after injection. Serum obtained from the samples was assayed from GH concentration. The number of steers responding to injection fo the various GRFs tested (P=0.42) ranged from 9 of 10 to 10 of 10 depending on the treatment. Using procedure B, compounds were tested for growth hormone release in steers. In comparison to the standard bGRF(1-44)NH2 (Area 100%), the test compounds gave the following relative growth hormone areas: Compound 4, 233%; compound 5, 140%; compound 6, 160%; compound 7, 126%; compound 8, 307%; compound 9, 260%; and compound 11, 173%.

Data set [2] can be described thus: proteolytic stability in bovine plasma (HPLC, modified Frohman method). The note with it: for remaining at 1 h: bovine plasma; for proteolytic stability in bovine plasma (in words): summary.
Where [3] appears, read: first assay, potency as a fraction of bGRF(1-44)NH₂.
Where [4] appears, read: 3nM/100 kg bodyweight, single iv injection.
Where [5] appears, read: subsequent assay, potency as a fraction of bGRF(1-44)NH₂.

Turning to Cya²⁵, Leu²⁷bGRF(1-32)NH₂ [Compound 1], the “the potency of bGRF(1-44)NH₂” value in data set [1] (setting [3]) worked out at 0.53. Further, in the data set on meal-fed Holstein steers (setting [4]), the “serum growth hormone (GH) response, difference from Leu²⁷ bGRF(1-32)NH₂” value is reported as “No significant differences” and the “area under the GH response curve” value came to 100%.
For the compound `CC[C@H](C)[C@H](NC(=O)[C@H](C)NC(=O)[C@H](CS(=O)(=O)O)NC(=O)[C@H](C)NC(=O)CCc1ccc(O)cc1)C(=O)N[C@@H](Cc1ccccc1)C(=O)N[C@H](C(=O)N[C@@H](CC(N)=O)C(=O)N[C@@H](CO)C(=O)N[C@@H](Cc1ccc(O)cc1)C(=O)N[C@@H](CCCNC(=N)N)C(=O)N[C@@H](CCCCN)C(=O)N[C@H](C(=O)N[C@@H](CC(C)C)C(=O)N[C@@H](C)C(=O)N[C@@H](CCC(N)=O)C(=O)N[C@@H](CC(C)C)C(=O)N[C@@H](CO)C(=O)N[C@@H](C)C(=O)N[C@@H](CCCNC(=N)N)C(=O)N[C@@H](CCCCN)C(=O)N[C@@H](CC(C)C)C(=O)N[C@@H](CC(C)C)C(=O)N[C@@H](CCC(N)=O)C(=O)N[C@@H](CC(=O)O)C(=O)N[C@H](C(=O)N[C@@H](CC(C)C)C(=O)N[C@@H](CC(N)=O)C(=O)N[C@@H](CCCNC(=N)N)C(=O)N[C@@H](CCC(N)=O)C(=O)N[C@@H](CCC(N)=O)C(=O)NCC(N)=O)[C@@H](C)CC)C(C)C)[C@@H](C)O` [Compound 9, Desamino-Tyr¹, Cya³, Ala¹⁵, Leu²⁷-bGRF(1-32)NH₂] (Desaminotyrosyl-A[Cya]AIFTNSYRKVLAQLSARKLLQDILNRQQG-NH2), in data set [1] (setting [5]), the “the potency of bGRF(1-44)NH₂” value was 2.24. Also, the “potency (in words)” value in data set [1] is given as “high potency”. In addition, the “relative growth hormone areas” value in the data set with meal-fed Holstein steers is 260%. Besides, in data set [2], the amount remaining at 1 h amounted to 81% and the “proteolytic stability in bovine plasma (in words)” value is recorded as “good stability”.
For `CC[C@H](C)[C@H](NC(=O)[C@H](C)NC(=O)[C@H](CS(=O)(=O)O)NC(=O)[C@@H](C)NC(=O)[C@@H](N)Cc1c[nH]cn1)C(=O)N[C@@H](Cc1ccccc1)C(=O)N[C@H](C(=O)N[C@@H](CC(N)=O)C(=O)N[C@@H](CO)C(=O)N[C@@H](Cc1ccc(O)cc1)C(=O)N[C@@H](CCCNC(=N)N)C(=O)N[C@@H](CCCCN)C(=O)N[C@H](C(=O)N[C@@H](CC(C)C)C(=O)N[C@@H](C)C(=O)N[C@@H](CCC(N)=O)C(=O)N[C@@H](CC(C)C)C(=O)N[C@@H](CO)C(=O)N[C@@H](C)C(=O)N[C@@H](CCCNC(=N)N)C(=O)N[C@@H](CCCCN)C(=O)N[C@@H](CC(C)C)C(=O)N[C@@H](CC(C)C)C(=O)N[C@@H](CCC(N)=O)C(=O)N[C@@H](CC(=O)O)C(=O)N[C@H](C(=O)N[C@@H](CC(C)C)C(=O)N[C@@H](CC(N)=O)C(=O)N[C@@H](CCCNC(=N)N)C(=O)N[C@@H](CCC(N)=O)C(=O)N[C@@H](CCC(N)=O)C(=O)NCC(N)=O)[C@@H](C)CC)C(C)C)[C@@H](C)O` [Compound 11, His¹, D-Ala², Cya³, Ala¹⁵, Leu²⁷-bGRF(1-32)NH₂] (H-H[dA][Cya]AIFTNSYRKVLAQLSARKLLQDILNRQQG-NH2), in data set [1], the “the potency of bGRF(1-44)NH₂” value is on record as 0.28. In addition, in the data set with meal-fed Holstein steers, the “relative growth hormone areas” value is 173%. The same compound gave an amount remaining at 1 h in data set [2] of 86%.
On to `CC[C@H](C)[C@H](NC(=O)[C@H](C)NC(=O)[C@H](CS(=O)(=O)O)NC(=O)[C@H](C)NC(=O)[C@@H](N)Cc1ccc(O)cc1)C(=O)N[C@@H](Cc1ccccc1)C(=O)N[C@H](C(=O)N[C@@H](CC(N)=O)C(=O)N[C@@H](CO)C(=O)N[C@@H](Cc1ccc(O)cc1)C(=O)N[C@@H](CCCNC(=N)N)C(=O)N[C@@H](CCCCN)C(=O)N[C@H](C(=O)N[C@@H](CC(C)C)C(=O)NCC(=O)N[C@@H](CCC(N)=O)C(=O)N[C@@H](CC(C)C)C(=O)N[C@@H](CO)C(=O)N[C@@H](C)C(=O)N[C@@H](CCCNC(=N)N)C(=O)N[C@@H](CCCCN)C(=O)N[C@@H](CC(C)C)C(=O)N[C@@H](CC(C)C)C(=O)N[C@@H](CCC(N)=O)C(=O)N[C@@H](CC(=O)O)C(=O)N[C@H](C(=O)N[C@@H](CC(C)C)C(=O)N[C@@H](CC(N)=O)C(=O)N[C@@H](CCCNC(=N)N)C(=O)N[C@@H](CCC(N)=O)C(=O)N[C@@H](CCC(N)=O)C(=O)NCC(N)=O)[C@@H](C)CC)C(C)C)[C@@H](C)O` [Compound 3, Cya³, Leu ²⁷bGRF(1-32)NH₂] (H-YA[Cya]AIFTNSYRKVLGQLSARKLLQDILNRQQG-NH2), for which, in data set [1] (setting [3]), the “the potency of bGRF(1-44)NH₂” value came to 0.31. For the same compound, in data set [1] (setting [5]), the “the potency of bGRF(1-44)NH₂” value is on record as 0.41. In the data set on meal-fed Holstein steers (setting [4]), the “serum growth hormone (GH) response, difference from Leu²⁷ bGRF(1-32)NH₂” value is recorded as “No significant differences” and the “area under the GH response curve” value is reported as 111%. This compound also gave a fraction remaining at 1 h in data set [2] of 42%.
Regarding `CC[C@H](C)[C@H](NC(=O)[C@H](C)NC(=O)[C@H](CS(=O)(=O)O)NC(=O)[C@@H](C)NC(=O)[C@@H](N)Cc1c[nH]cn1)C(=O)N[C@@H](Cc1ccccc1)C(=O)N[C@H](C(=O)N[C@@H](CC(N)=O)C(=O)N[C@@H](CO)C(=O)N[C@@H](Cc1ccc(O)cc1)C(=O)N[C@@H](CCCNC(=N)N)C(=O)N[C@@H](CCCCN)C(=O)N[C@H](C(=O)N[C@@H](CC(C)C)C(=O)NCC(=O)N[C@@H](CCC(N)=O)C(=O)N[C@@H](CC(C)C)C(=O)N[C@@H](CO)C(=O)N[C@@H](C)C(=O)N[C@@H](CCCNC(=N)N)C(=O)N[C@@H](CCCCN)C(=O)N[C@@H](CC(C)C)C(=O)N[C@@H](CC(C)C)C(=O)N[C@@H](CCC(N)=O)C(=O)N[C@@H](CC(=O)O)C(=O)N[C@H](C(=O)N[C@@H](CC(C)C)C(=O)N[C@@H](CC(N)=O)C(=O)N[C@@H](CCCNC(=N)N)C(=O)N[C@@H](CCC(N)=O)C(=O)N[C@@H](CCC(N)=O)C(=O)NCC(N)=O)[C@@H](C)CC)C(C)C)[C@@H](C)O` [Compound 7, His¹, D-Ala², Cya³, Leu²⁷-bGRF(1-32)NH₂] (H-H[dA][Cya]AIFTNSYRKVLGQLSARKLLQDILNRQQG-NH2), the “the potency of bGRF(1-44)NH₂” value in data set [1] came out at 0.06. Also, in the data set with meal-fed Holstein steers, the “relative growth hormone areas” value came out at 126%. This compound yielded a fraction remaining at 1 h in data set [2] of 69%.
Turning to `CC[C@H](C)[C@H](NC(=O)[C@H](C)NC(=O)[C@H](CS(=O)(=O)O)NC(=O)[C@@H](C)NC(=O)[C@@H](N)Cc1ccc(O)cc1)C(=O)N[C@@H](Cc1ccccc1)C(=O)N[C@H](C(=O)N[C@@H](CC(N)=O)C(=O)N[C@@H](CO)C(=O)N[C@@H](Cc1ccc(O)cc1)C(=O)N[C@@H](CCCNC(=N)N)C(=O)N[C@@H](CCCCN)C(=O)N[C@H](C(=O)N[C@@H](CC(C)C)C(=O)N[C@@H](C)C(=O)N[C@@H](CCC(N)=O)C(=O)N[C@@H](CC(C)C)C(=O)N[C@@H](CO)C(=O)N[C@@H](C)C(=O)N[C@@H](CCCNC(=N)N)C(=O)N[C@@H](CCCCN)C(=O)N[C@@H](CC(C)C)C(=O)N[C@@H](CC(C)C)C(=O)N[C@@H](CCC(N)=O)C(=O)N[C@@H](CC(=O)O)C(=O)N[C@H](C(=O)N[C@@H](CC(C)C)C(=O)N[C@@H](CC(N)=O)C(=O)N[C@@H](CCCNC(=N)N)C(=O)N[C@@H](CCC(N)=O)C(=O)N[C@@H](CCC(N)=O)C(=O)NCC(N)=O)[C@@H](C)CC)C(C)C)[C@@H](C)O` [Compound 8, D-Ala², Cya³, Ala¹⁵, Leu²⁷-bGRF(1-32)NH₂] (H-Y[dA][Cya]AIFTNSYRKVLAQLSARKLLQDILNRQQG-NH2), in data set [1], the “the potency of bGRF(1-44)NH₂” value turned out to be 1.34 and the “potency (in words)” value is given as “high potency”. In addition, the “relative growth hormone areas” value in the data set with meal-fed Holstein steers is listed as 307%. In addition, in data set [2], the fraction remaining at 1 h is 95% and the “proteolytic stability in bovine plasma (in words)” value is recorded as “good stability”.
Turning to “YADAIFTNSYRKVLGQLSARKLLQDILNRQQG-NH2 [Leu²⁷ bGRF(1-32)NH₂, reference compound]”, in the data set on meal-fed Holstein steers (3nM/100 kg bodyweight, single iv injection, compared with bGRF(1-44)NH₂), the “serum growth hormone (GH) response, difference from bGRF(1-44)NH₂” value is “No significant differences”. Besides, the “area under the GH response curve” value in the data set on meal-fed Holstein steers (setting [4]) is on record as 122%. The amount remaining at 1 h in data set [2] came to 47%.
